Results on 15 compounds are retold here after patent US9145415B2, “Nitrogen-containing heterocyclic compound or salt thereof” (FUJIFILM Corporation, priority 2012, dated 2015).

For test [1], the target named is T1, human FLT3 protein (FLT3 (WT)) (Homo sapiens, UniProt P36888).
T1 construct: human FLT3 protein (intracellular region, 564 to 993 aa); GST; purchased Carna Biosciences; host or cells: baculovirus expression system
T1 sequence (P36888 564-993): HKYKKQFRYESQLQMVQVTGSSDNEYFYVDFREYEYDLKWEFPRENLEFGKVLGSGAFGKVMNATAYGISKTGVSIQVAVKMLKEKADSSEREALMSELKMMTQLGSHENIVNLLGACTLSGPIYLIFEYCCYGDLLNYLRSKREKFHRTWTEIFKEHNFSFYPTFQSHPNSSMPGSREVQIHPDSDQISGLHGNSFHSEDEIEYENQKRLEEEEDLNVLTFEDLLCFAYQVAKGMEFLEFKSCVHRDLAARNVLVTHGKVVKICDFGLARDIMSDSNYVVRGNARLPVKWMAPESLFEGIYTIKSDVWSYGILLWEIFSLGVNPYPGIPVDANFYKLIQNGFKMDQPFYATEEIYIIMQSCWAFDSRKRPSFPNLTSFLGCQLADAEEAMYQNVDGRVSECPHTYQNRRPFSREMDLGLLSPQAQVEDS
The test can be described thus: FLT3 inhibition test (FLT3 enzyme inhibition, time-resolved fluorescence of substrate peptide phosphorylation). The test is classed as biochemical. Conditions: read-out: FLT3 (WT) enzyme inhibition activity. On the procedure: The FLT3 inhibition test was performed for the compounds of the present invention by the method described below.
A reaction mixture in a volume of 9 μL containing the FLT3 protein and a test compound of a predetermined concentration (1.2 μg of FLT3, 100 mM HEPES, 10 mM MgCl2, 25 mM NaCl, 0.01% BSA, 1 mM DTT, pH 7.5) was left standing at 25° C. for 15 minutes. […] (Toray Industries), and 3 μL (final concentration 50 μM) of ATP (Sigma-Aldrich) were added to the reaction mixture, and the mixture was shaken for 2 minutes, and then further left standing at 25° C. for 30 minutes to allow the enzymatic reaction.

For another test, the system named is MV4-11 cells. The test can be described thus: Leukemia cell proliferation inhibition test (ATPlite), MV4-11. The settings on record: Homo sapiens, read-out: MV4-11 cell proliferation inhibition effect. The format is cell-based. As for the experimental part: (§1) A leukemia cell proliferation inhibition test was performed for the compounds of the present invention by using the leukemia cell strains MV4-11 (ATCC Number, CRL-9591) and Molm-13 (DSMZ Number, ACC554).
(§2) The leukemia cell proliferation inhibition test was performed by the method described below.
(§3) For the purpose of measuring proliferation inhibition attained with a compound, the total cell count was quantified on the basis of the total cellular ATP concentration using the ATPlite (PerkinElmer) reagent utilizing firefly luciferase. The Molm-13 or MV4-11 cells were added to the RPMI medium containing penicillin and streptomycin (penn/strep) and 10% FBS at a density of 2×10^5 cells/ml, and 50 μL (10,000 cells) of the cell suspension was inoculated to each well of a 96-well plate (Corning).
(§4) A serially diluted solution of a compound or 0.1% DMSO (solvent control) in a volume of 50 μL was added to the cells, and then the cells were cultured for 72 hours under the standard cell proliferation conditions (37° C., 5% CO2) to allow proliferation of the cells. In order to measure the proliferation of the total cells, equal volume of the ATPlite reaction mixture was added to each well in accordance with the instructions attached to ATPlite, and then luminescence count of the well was measured (relative light unit, RLU).
(§5) The RLU signal observed with the DMSO solvent control after 72 hours of the culture was defined as a signal indicating 0% inhibition, and the GI50 value for the proliferation inhibition corresponds to a concentration of a compound that provides 50% inhibition based on the proliferation of the total cells contained in the DMSO solvent control. Each data point was obtained from samples in duplicate. The GI50 values were calculated by the non-linear regression fitting (Fit Model (205)) according to a sigmoid dose-reaction equation using the XLfit software.

A further test deals with Molm-13 cells. In words: Leukemia cell proliferation inhibition test (ATPlite), Molm-13. The format is cell-based. The settings on record: Homo sapiens, read-out: MOLM13 cell proliferation inhibition effect. As for the experimental part:
as §1, §2, §3, §4, §5

The mark [2] stands for this setting: GST-fused human FLT3 (564 to 993 aa), ATP 50 μM.
The mark [3] stands for this setting: MV4-11, 72 h, MV4-11, 72 hours culture, ATPlite, GI50 per method.
The mark [4] stands for this setting: MOLM-13, 72 h, Molm-13, 72 hours culture, ATPlite, GI50 per method.

Like-named read-outs stand apart in the source and are kept apart here.

As for `COc1ccc(Nc2nc(Nc3ccc(F)cc3)ncc2C#CCCCNC(=O)CN(C)C(=O)/C=C/CN(C)C)cc1` [Compound 10-19], the IC50 (in test [1] (setting [2]); in the test with MV4-11 cells (setting [3]); in the test on Molm-13 cells (setting [4])) was less than 10 nM throughout.
`CCCNc1nc(Nc2ccc(C(N)=O)cc2)ncc1-c1cccc(CCNC(=O)CNC(=O)/C=C/CN(C)C)c1` [Compound 16-1, (E)-4-((5-(3-(2-(2-(4-(dimethylamino)-2-butenamido)actamido)ethyl)phenyl)-4-(propylamino)pyrimidin-2-yl)amino)benzamide]: the IC50 in test [1] (setting [2]) is less than 10 nM; with MV4-11 cells (setting [3]) it was 10 to 100 nM; in the test with Molm-13 cells (setting [4]), 100 to 1000 nM.
For `CCCN(CCC)c1nc(Nc2ccc(F)cc2)ncc1C#CCCCNC(=O)CN(C)C(=O)/C=C/CN(C)C` [Compound 10-22], in that order: less than 10 nM, less than 10 nM and less than 10 nM.
Turning to `CCCNc1nc(Nc2cccc(-n3nccn3)c2)ncc1C#CCCCNC(=O)[C@H](C)N(C)C(=O)/C=C/CN(C)C` [Compound 22-19], the IC50 in test [1] (FLT3 (WT)) is less than 10 nM; in the test on MV4-11 cells (MV4-11, MV4-11 cell) it was less than 10 nM; in the test on Molm-13 cells (MOLM-13, MOLM13 cell), less than 10 nM.
Turning to `CCCNc1nc(Nc2ccc(C#N)cc2)ncc1C#CCCCNC(=O)[C@H]([C@@H](C)O)N(C)C(=O)/C=C/CN(C)C` [Compound 7-63], the IC50 (in test [1] (setting [2]); in the test with MV4-11 cells (setting [3]); in the test with Molm-13 cells (setting [4])) was less than 10 nM throughout.
Regarding `C=CC(=O)NCC(=O)Nc1cccc(NC(=O)c2cnc(Nc3ccc(C(N)=O)cc3)nc2NCCC)c1` [Compound 3-8], the IC50 in test [1] (setting [2]) was less than 10 nM; in the test with MV4-11 cells (setting [3]), 10 to 100 nM; in the test with Molm-13 cells (setting [4]), 10 to 100 nM.
`COCCNc1nc(Nc2ccc(F)cc2)ncc1C#C[C@@H]1CCC[C@H](NC(=O)[C@H](C)N(C)C(=O)/C=C/CN(C)C)C1` [Compound 22-37]: the IC50 in test [1] (FLT3 (WT)) was less than 10 nM; in the test with MV4-11 cells (MV4-11, MV4-11 cell), less than 10 nM; in the test on Molm-13 cells (MOLM-13, MOLM13 cell) it was less than 10 nM.
With `CCCNc1nc(Nc2ccc(C#N)cc2)ncc1C#C[C@@H]1CCC[C@H](NC(=O)[C@H](C)N(C)C(=O)/C=C/CN(C)C)C1` [Compound 13-4], the IC50 (in test [1] (setting [2]); with MV4-11 cells (setting [3]); with Molm-13 cells (setting [4])) was less than 10 nM in each case.
For `CCCNc1nc(Nc2ccc(C(N)=O)cc2)ncc1C(=O)Nc1ccc(NC(=O)/C=C/CN(C)C)cc1` [Compound 3-6], the IC50 in test [1] (setting [2]) is less than 10 nM; with MV4-11 cells (setting [3]) it was 100 to 1000 nM; in the test on Molm-13 cells (setting [4]), more than 1000 nM.
Taken in the same sequence, the figures for `CCCNc1nc(Nc2ccc(C(N)=O)cc2)ncc1C(=O)Nc1cccc(NC(=O)C(C)(C)NC(=O)/C=C/CN(C)C)c1` [Compound 3-13] were less than 10 nM, 10 to 100 nM and 10 to 100 nM.
Turning to `COc1nc(Nc2ccc(F)nc2)ncc1C#C[C@@H]1CCC[C@H](NC(=O)[C@H](C)N(C)C(=O)/C=C/CN(C)C)C1` [Compound 15-2], the IC50 in test [1] (setting [2]) was less than 10 nM; with MV4-11 cells (setting [3]), less than 10 nM; with Molm-13 cells (setting [4]), 10 to 100 nM.
On to `CCCNc1nc(Nc2ccc(C(N)=O)cc2)ncc1C(=O)NCCCN[C@@H]1CCCC[C@@H]1NC(=O)/C=C/CN(C)C` [Compound 3-25], for which the IC50 in test [1] (setting [2]) is less than 10 nM.
On to `CCCNc1nc(Nc2ccc(C(N)=O)cc2)ncc1C(=O)NCCCNC1CCCC[C@@H]1NC(=O)/C=C/CN(C)C` (stereo partly shown) [Compound 3-25], for which the IC50 lay in the range of 10 to 100 nM in the test on MV4-11 cells (setting [3]) and 100 to 1000 nM with Molm-13 cells (setting [4]).
Take `CCCNc1nc(Nc2ccc(C#N)cc2)ncc1C#CCCCNC(=O)[C@H](C)N(C)C(=O)/C=C/CN(C)C` [Compound 7-5, (S,E)-N-(1-((5-(2-((4-Cyanophenyl)amino)-4-(propylamino)pyrimidin-5-yl)-4-pentyn-1-yl)amino)-1-oxopropan-2-yl)-4-(dimethylamino)-N-methyl-2-butenamide]: the IC50 with MV4-11 cells (setting [3]) and with Molm-13 cells (setting [4]) was less than 10 nM each time.
As for `CCCNc1nc(Nc2ccc(C#N)cc2)ncc1C#CCCCNC(=O)[C@@H](C)N(C)C(=O)/C=C/CN(C)C` [Compound 7-32], the IC50 in the test with MV4-11 cells (setting [3]) and in the test with Molm-13 cells (setting [4]) was less than 10 nM each time.
